We go through 14 molecules from patent US9499550B2 (BRISTOL-MYERS SQUIBB COMPANY, priority 2012, dated 2016).

The structures appear in SMILES notation.

In assay [1] the test system is HCV genotype 1b (Con1) replicon in HUH-7 cells. Description: HCV replicon luciferase reporter assay, genotype 1b. Format: cell-based. The conditions noted are these: Hepatitis C virus, Huh-7, 72 h, HCV genotype 1b replicon luciferase, 3 days incubation, read-out: LE_1b (EC50, range). In a few lines: (§1)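 Replicon inhibition for both genotypes was measured as Renilla luciferase signal (EnduRen, 7.5 μM final, 2 h) after 3-day, 37° C exposure of replicon-bearing HUH-7 cells in 4% FCS DMEM, 0.5% DMSO. The 1b construct carries S1179I; the 1a H77 construct carries P1496L and S2204I. Twenty-point, 3-fold dilutions were fitted four-parametrically for EC50, and CC50 was taken from multiplexed Cell Titer-Blue.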

Assay [2] has as its system HCV genotype 1a (H77 strain) replicon in HUH-7 cells. Description: HCV replicon luciferase reporter assay, genotype 1a. Type of assay: cell-based. The settings on record: Hepatitis C virus, Huh-7, 72 h, HCV genotype 1a replicon luciferase, 3 days incubation, read-out: LE_1a (EC50, range). In outline: as §1

As for `CC[C@@H]1C[C@H](C)CC/C=C\[C@@H]2C[C@@]2(C(=O)NS(=O)(=O)C2(CF)CC2)NC(=O)[C@@H]2C[C@@H](Oc3nccc4c5c(ccc34)OCCO5)CN2C(=O)[C@H]1NC(=O)OC(C)(C)C` [Compound 5425, tert-butyl ((2R,6S,7R,9R,13aS,14aR,16aS,Z)-2-((2,3-dihydro-[1,4]dioxino[2,3-f]isoquinolin-7-yl)oxy)-7-ethyl-14a-(((1-(fluoromethyl)cyclopropyl)sulfonyl)carbamoyl)-9-methyl-5,16-dioxo-1,2,3,5,6,7,8,9,10,11,13a,14,14a,15,16,16a-hexadecahydrocyclopropa[e]pyrrolo[1,2-a][1,4]diazacyclopentadecin-6-yl)carbamate], the EC50 in assay [1] and in assay [2] was 1.01 to 5 nM in each case.

`CC[C@@H]1C[C@H](C)CC/C=C\[C@@H]2C[C@@]2(C(=O)NS(=O)(=O)C2(CF)CC2)NC(=O)[C@@H]2C[C@@H](Oc3nccc4c5c(ccc34)OCCO5)CN2C(=O)[C@H]1NC(=O)OC(C)(C)C(F)(F)F` [Compound 5427, 1,1,1-trifluoro-2-methylpropan-2-yl((2R,6S,7R,9R,13aS,14aR,16aS,Z)-2-((2,3-dihydro-[1,4]dioxino[2,3-f]isoquinolin-7-yl)oxy)-7-ethyl-14a-(((1-(fluoromethyl)cyclopropyl)sulfonyl)carbamoyl)-9-methyl-5,16-dioxo-1,2,3,5,6,7,8,9,10,11,13a,14,14a,15,16,16a-hexadecahydrocyclopropa[e]pyrrolo[1,2-a][1,4]diazacyclopentadecin-6-yl)carbamate]: the EC50 in assay [1] and in assay [2] was 5.01 to 35 nM each time.

On to `[2H]C([2H])([2H])C(OC(=O)N[C@@H]1C(=O)N2C[C@H](Oc3nccc4cc(OC)c(F)cc34)C[C@H]2C(=O)N[C@]2(C(=O)NS(=O)(=O)C3(C)CC3)C[C@H]2/C=C\CC[C@@H](C)C[C@H]1CC)(C([2H])([2H])[2H])C(F)(F)F` [Compound 5429], for which the EC50 in assay [1] and in assay [2] was 1.01 to 5 nM each time.

Turning to `[2H]C([2H])([2H])C(OC(=O)N[C@@H]1C(=O)N2C[C@H](Oc3ncc(OC)c4ccccc34)C[C@H]2C(=O)N[C@]2(C(=O)NS(=O)(=O)C3(C)CC3)C[C@H]2/C=C\CC[C@@H](C)C[C@H]1CC)(C([2H])([2H])[2H])C(F)(F)F` [Compound 5431], the EC50 in assay [1] and in assay [2] was 1.01 to 5 nM each time.

`[2H]C([2H])([2H])C(OC(=O)N[C@@H]1C(=O)N2C[C@H](Oc3ncc(OC)c4ccccc34)C[C@H]2C(=O)N[C@]2(C(=O)NS(=O)(=O)C3CC3)C[C@H]2/C=C\CC[C@@H](C)C[C@H]1CC)(C([2H])([2H])[2H])C(F)(F)F` [Compound 5433]: the EC50 in assay [1] lay within 0.1 to 0.5 nM; in assay [2] it was 0.51 to 1 nM.

Consider `CC[C@@H]1C[C@@H](C)CC/C=C\[C@@H]2C[C@@]2(C(=O)NS(=O)(=O)C2(C)CC2)NC(=O)[C@@H]2C[C@@H](Oc3nccc4cc(OC)c(F)cc34)CN2C(=O)[C@H]1NC(=O)OC(C)(C)C(C)(F)F` [Compound 5434, 3,3-difluoro-2-methylbutan-2-yl((2R,6S,7R,9S,13aS,14aR,16aS,Z)-7-ethyl-2-((7-fluoro-6-methoxyisoquinolin-1-yl)oxy)-9-methyl-14a-(((1-methylcyclopropyl)sulfonyl)carbamoyl)-5,16-dioxo-1,2,3,5,6,7,8,9,10,11,13a,14,14a,15,16,16a-hexadecahydrocyclopropa[e]pyrrolo[1,2-a][1,4]diazacyclopentadecin-6-yl)carbamate], for which the EC50 in assay [1] and in assay [2] was 1.01 to 5 nM each time.

`CC[C@@H]1C[C@H](C)CC/C=C\[C@@H]2C[C@@]2(C(=O)NS(=O)(=O)C2(C)CC2)NC(=O)[C@@H]2C[C@@H](Oc3nccc4cc(OC)c(F)cc34)CN2C(=O)[C@H]1NC(=O)OC(C)(C)C(C)(F)F` [Compound 5435, 3,3-difluoro-2-methylbutan-2-yl((2R,6S,7R,9R,13aS,14aR,16aS,Z)-7-ethyl-2-((7-fluoro-6-methoxyisoquinolin-1-yl)oxy)-9-methyl-14a-(((1-methylcyclopropyl)sulfonyl)carbamoyl)-5,16-dioxo-1,2,3,5,6,7,8,9,10,11,13a,14,14a,15,16,16a-hexadecahydrocyclopropa[e]pyrrolo[1,2-a][1,4]diazacyclopentadecin-6-yl)carbamate]: the EC50 in assay [1] and in assay [2] was 1.01 to 5 nM each time.

As to `CC[C@@H]1C[C@H](C)CC/C=C\[C@@H]2C[C@@]2(C(=O)NS(=O)(=O)C2(C)CC2)NC(=O)[C@@H]2C[C@@H](Oc3ncc(OC)c4ccccc34)CN2C(=O)[C@H]1NC(=O)OC(C)(C)C(C)(F)F` [Compound 5437, 3,3-difluoro-2-methylbutan-2-yl((2R,6S,7R,9R,13aS,14aR,16aS,Z)-7-ethyl-2-((4-methoxyisoquinolin-1-yl)oxy)-9-methyl-14a-(((1-methylcyclopropyl)sulfonyl)carbamoyl)-5,16-dioxo-1,2,3,5,6,7,8,9,10,11,13a,14,14a,15,16,16a-hexadecahydrocyclopropa[e]pyrrolo[1,2-a][1,4]diazacyclopentadecin-6-yl)carbamate], the EC50 in assay [1] was in the range of 0.1 to 0.5 nM; in assay [2], 1.01 to 5 nM.

Consider `CC[C@@H]1C[C@H](C)CC/C=C\[C@@H]2C[C@@]2(C(=O)NS(=O)(=O)C2CC2)NC(=O)[C@@H]2C[C@@H](Oc3ncc(OC)c4ccccc34)CN2C(=O)[C@H]1NC(=O)OC(C)(C)C(C)(F)F` [Compound 5439, 3,3-difluoro-2-methylbutan-2-yl((2R,6S,7R,9R,13aS,14aR,16aS,Z)-14a-((cyclopropylsulfonyl)carbamoyl)-7-ethyl-2-((4-methoxyisoquinolin-1-yl)oxy)-9-methyl-5,16-dioxo-1,2,3,5,6,7,8,9,10,11,13a,14,14a,15,16,16a-hexadecahydrocyclopropa[e]pyrrolo[1,2-a][1,4]diazacyclopentadecin-6-yl)carbamate], for which the EC50 lay in the range of 0.1 to 0.5 nM in assay [1] and 0.51 to 1 nM in assay [2].

As for `CC[C@@H]1C[C@H](C)CC/C=C\[C@@H]2C[C@@]2(C(=O)NS(=O)(=O)C2(CF)CC2)NC(=O)[C@@H]2C[C@@H](Oc3ncc(N4CCOCC4)c4ccccc34)CN2C(=O)[C@H]1NC(=O)OC(C)(C)C` [Compound 5441, tert-butyl ((2R,6S,7R,9R,13aS,14aR,16aS,Z)-7-ethyl-14a-(((1-(fluoromethyl)cyclopropyl)sulfonyl)carbamoyl)-9-methyl-2-((4-morpholinoisoquinolin-1-yl)oxy)-5,16-dioxo-1,2,3,5,6,7,8,9,10,11,13a,14,14a,15,16,16a-hexadecahydrocyclopropa[e]pyrrolo[1,2-a][1,4]diazacyclopentadecin-6-yl)carbamate], the EC50 in assay [1] and in assay [2] was 1.01 to 5 nM in each case.

For `C[C@@H]1CC/C=C\[C@@H]2C[C@@]2(C(=O)NS(=O)(=O)C2(CF)CC2)NC(=O)[C@@H]2C[C@@H](Oc3ncc(N4CCOCC4)c4ccccc34)CN2C(=O)[C@@H](NC(=O)OC(C)(C)C)[C@H](C)C1` [Compound 5443, tert-butyl ((2R,6S,7R,9R,13aS,14aR,16aS,Z)-14a-(((1-(fluoromethyl)cyclopropyl)sulfonyl)carbamoyl)-7,9-dimethyl-2-((4-morpholinoisoquinolin-1-yl)oxy)-5,16-dioxo-1,2,3,5,6,7,8,9,10,11,13a,14,14a,15,16,16a-hexadecahydrocyclopropa[e]pyrrolo[1,2-a][1,4]diazacyclopentadecin-6-yl)carbamate], the EC50 in assay [1] lay within 0.51 to 1 nM; in assay [2], 1.01 to 5 nM.

On to `CC[C@@H]1C[C@H](C)CC/C=C\[C@@H]2C[C@@]2(C(=O)NS(=O)(=O)C2(CF)CC2)NC(=O)[C@@H]2C[C@@H](Oc3ncc(N4CCOCC4)c4ccccc34)CN2C(=O)[C@H]1NC(=O)OC(C)(C)C(F)(F)F` [Compound 5445, 1,1,1-trifluoro-2-methylpropan-2-yl((2R,6S,7R,9R,13aS,14aR,16aS,Z)-7-ethyl-14a-(((1-(fluoromethyl)cyclopropyl)sulfonyl)carbamoyl)-9-methyl-2-((4-morpholinoisoquinolin-1-yl)oxy)-5,16-dioxo-1,2,3,5,6,7,8,9,10,11,13a,14,14a,15,16,16a-hexadecahydrocyclopropa[e]pyrrolo[1,2-a][1,4]diazacyclopentadecin-6-yl)carbamate], for which the EC50 in assay [1] and in assay [2] was 1.01 to 5 nM throughout.

On to `CC[C@@H]1C[C@H](C)CC/C=C\[C@@H]2C[C@@]2(C(=O)NS(=O)(=O)C2(CF)CC2)NC(=O)[C@@H]2C[C@@H](Oc3ncc(N4CCOCC4)c4ccccc34)CN2C(=O)[C@H]1NC(=O)OC(C)(C)C(C)(F)F` [Compound 5447, 3,3-difluoro-2-methylbutan-2-yl((2R,6S,7R,9R,13aS,14aR,16aS,Z)-7-ethyl-14a-(((1-(fluoromethyl)cyclopropyl)sulfonyl)carbamoyl)-9-methyl-2-((4-morpholinoisoquinolin-1-yl)oxy)-5,16-dioxo-1,2,3,5,6,7,8,9,10,11,13a,14,14a,15,16,16a-hexadecahydrocyclopropa[e]pyrrolo[1,2-a][1,4]diazacyclopentadecin-6-yl)carbamate], for which the EC50 in assay [1] and in assay [2] was 1.01 to 5 nM each time.

Consider `C[C@@H]1CC/C=C\[C@@H]2C[C@@]2(C(=O)NS(=O)(=O)C2(CF)CC2)NC(=O)[C@@H]2C[C@@H](Oc3ncc(N4CCOCC4)c4ccccc34)CN2C(=O)[C@@H](NC(=O)OC(C)(C)C(F)(F)F)[C@H](C)C1` [Compound 5449, 1,1,1-trifluoro-2-methylpropan-2-yl((2R,6S,7R,9R,13aS,14aR,16aS,Z)-14a-(((1-(fluoromethyl)cyclopropyl)sulfonyl)carbamoyl)-7,9-dimethyl-2-((4-morpholinoisoquinolin-1-yl)oxy)-5,16-dioxo-1,2,3,5,6,7,8,9,10,11,13a,14,14a,15,16,16a-hexadecahydrocyclopropa[e]pyrrolo[1,2-a][1,4]diazacyclopentadecin-6-yl)carbamate], for which the EC50 is 0.51 to 1 nM in assay [1] and 1.01 to 5 nM in assay [2].
